Data set [1] can be described thus: Toxicity in NOD SCID nude mouse xenografted with human MIA PaCa-2 cells assessed as body weight at 90 mg/kg, iv for 20 days (reference value: 28.4 +/- 2.1g). The class given is organism-based. Particulars: in vivo, 480 h, time 20 day. On the technique in general: In xenograft studies the graft and the host belong to different species.
In data set [2] the test system is MIA PaCa-2. The data set can be described thus: Potency index, ratio of FUdR GI50 to test compound GI50 for growth inhibition of human MIA-PaCa-2 cells. The format is functional.
Data set [3] is described as follows: Cmax in NOD SCID nude mouse tumour xenografted with ZR-75-1 cells assessed as floxuridine; 5-fluoro-2-deoxyuridine concentration at 90 mg/kg, iv measured up to 24 hrs by HPLC-MS/MS analysis. The class given is ADME, organism-based, Neoplasm. Details: route intravenous, dose 90 mg/kg, time <=24. The conditions noted are these: in vivo.
Data set [4] in a line: Cmax in NOD SCID nude mouse plasma xenografted with ZR-75-1 cells assessed as fluorouracil at 90 mg/kg, iv measured up to 24 hrs by HPLC-MS/MS analysis. The format is ADME, organism-based. The arrangement: route intravenous, dose 90 mg/kg, time <=24. Particulars: in vivo.
The target of data set [5] is T1, Solute carrier family 15 member 1 (Homo sapiens, UniProt P46059).
T1 sequence (P46059 whole entry): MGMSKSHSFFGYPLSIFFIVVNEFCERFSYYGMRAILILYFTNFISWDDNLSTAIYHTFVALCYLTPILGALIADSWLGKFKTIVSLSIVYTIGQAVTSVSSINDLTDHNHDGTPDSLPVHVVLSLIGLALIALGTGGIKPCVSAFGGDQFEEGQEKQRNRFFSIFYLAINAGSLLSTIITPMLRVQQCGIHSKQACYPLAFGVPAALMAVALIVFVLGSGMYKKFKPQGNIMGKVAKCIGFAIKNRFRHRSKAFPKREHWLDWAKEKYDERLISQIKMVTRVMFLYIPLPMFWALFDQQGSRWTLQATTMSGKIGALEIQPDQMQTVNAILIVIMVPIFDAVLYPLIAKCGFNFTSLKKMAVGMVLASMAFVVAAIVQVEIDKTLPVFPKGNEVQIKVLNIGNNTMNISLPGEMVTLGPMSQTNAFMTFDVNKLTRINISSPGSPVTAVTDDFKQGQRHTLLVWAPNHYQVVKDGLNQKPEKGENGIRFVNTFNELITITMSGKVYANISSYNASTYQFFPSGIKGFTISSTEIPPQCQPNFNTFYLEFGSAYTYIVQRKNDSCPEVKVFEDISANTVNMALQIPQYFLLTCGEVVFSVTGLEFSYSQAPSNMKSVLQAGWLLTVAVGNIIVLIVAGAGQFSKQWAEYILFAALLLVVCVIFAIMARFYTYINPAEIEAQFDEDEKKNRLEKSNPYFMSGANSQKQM
The data set can be described thus: Substrate activity at PEPT1 (unknown origin) expressed in MDCK cells assessed as inhibition of gly-sar uptake incubated for 10 mins by HPLC/MS/MS analysis. The class given is cell-based.

Data set [6] can be described thus: AUC (0 to t) in NOD SCID nude mouse plasma xenografted with ZR-75-1 cells assessed as fluorouracil AUC at 90 mg/kg, iv measured up to 24 hrs by HPLC-MS/MS analysis. The format is ADME, organism-based. Details: route intravenous, dose 90 mg/kg, time <=24. Particulars: in vivo.
The target in data set [7] is T2, Sodium- and chloride-dependent neutral and basic amino acid transporter B(0+) (Homo sapiens) (UniProt Q9UN76).
T2 sequence (whole entry): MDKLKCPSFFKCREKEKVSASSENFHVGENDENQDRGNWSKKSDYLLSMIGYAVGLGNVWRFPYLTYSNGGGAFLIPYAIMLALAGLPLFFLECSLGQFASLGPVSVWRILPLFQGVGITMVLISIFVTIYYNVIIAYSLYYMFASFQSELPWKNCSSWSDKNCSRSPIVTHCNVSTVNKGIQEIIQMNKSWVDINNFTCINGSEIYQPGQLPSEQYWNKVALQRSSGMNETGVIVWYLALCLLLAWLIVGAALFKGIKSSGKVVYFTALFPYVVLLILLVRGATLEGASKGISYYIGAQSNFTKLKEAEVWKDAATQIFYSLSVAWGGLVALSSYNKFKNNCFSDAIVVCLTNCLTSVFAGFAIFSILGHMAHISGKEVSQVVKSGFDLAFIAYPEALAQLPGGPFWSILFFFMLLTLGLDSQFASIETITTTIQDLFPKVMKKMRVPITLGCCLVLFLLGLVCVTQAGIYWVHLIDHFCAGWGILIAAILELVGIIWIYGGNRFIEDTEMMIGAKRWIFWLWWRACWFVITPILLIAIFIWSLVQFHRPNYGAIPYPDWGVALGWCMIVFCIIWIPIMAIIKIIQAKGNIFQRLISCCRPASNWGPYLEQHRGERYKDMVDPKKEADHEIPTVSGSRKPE
The data set can be described thus: Substrate activity at SLC6A14 (unknown origin) expressed in Xenopus laevis oocytes assessed as inhibition of drug uptake at 0.5 mM incubated for 10 mins in presence of glycine by HPLC analysis relative to control. The class given is cell-based. Particulars: Oocyte.

The next data set deals with MDA-MB-231. The data set can be described thus: Antitumour activity against human MDA-MB-231 cells xenografted in NOD SCID nude mouse assessed as tumour inhibition at 90 mg/kg, iv administered for 20 days measured every 2 day by caliper method relative to control. The class given is functional. The conditions noted are these: MDA-MB-231, iv, 480 h, time 20 day.
Data set [8] concerns ZR-75-1. The data set can be described thus: Antitumour activity against human ZR-75-1 cells xenografted in NOD SCID nude mouse assessed as tumour inhibition at 90 mg/kg, iv administered for 20 days measured every 2 day by caliper method relative to control. The format is functional. The conditions noted are these: ZR-75-1, iv, 480 h, time 20 day.
Data set [9] deals with ZR-75-1. In words: Potency index, ratio of FUdR GI50 to test compound GI50 for growth inhibition of human ZR-75-1 cells. The class given is functional.
The subject of data set [10] is MIA PaCa-2. The data set can be described thus: Antitumour activity against human MIA-PaCa-2 cells xenografted in NOD SCID nude mouse assessed as tumour inhibition at 90 mg/kg, iv administered for 20 days measured every 2 day by caliper method relative to control. Particulars: MIA PaCa-2, iv, 480 h, time 20 day. The class given is functional.
The target of data set [11] is T3, Sodium- and chloride-dependent neutral and basic amino acid transporter B(0+) (Homo sapiens, UniProt Q9UN76).
T3 sequence (Q9UN76 whole entry): T2 sequence (whole entry)
In words: Substrate activity at SLC6A14 (unknown origin) expressed in Xenopus laevis oocytes assessed as ABT0+ mediated drug uptake at 0.5 mM incubated for 10 mins by HPLC analysis. The conditions noted are these: oocyte, 500 µM. The format is ADME, cell-based.

Data set [12] in a line: Selectivity ratio of substrate activity at SLC6A14 (unknown origin) expressed in Xenopus laevis oocytes assessed as ABT0+ mediated drug uptake to drug uptake in Xenopus laevis oocytes. The arrangement: species or system Oocyte.

Here are results for one compound from ChEMBL document CHEMBL4665787, “Bifunctional and Unusual Amino Acid β- or γ-Ester Prodrugs of Nucleoside Analogues for Improved Affinity to ATB and Enhanced Metabolic Stability: An Application to Floxuridine” (J Med Chem, 2020).

pIC50: −log10 of the molar value.

What is called Cmax is the peak of the concentration-time curve. As a reminder, the pIC50 is the negative decadic logarithm of the IC50, by convention in mol/L. Broadly, the inhibition is the drop in the measured response relative to a control, in per cent. As usually defined, the inhibition in vivo is the percentage by which the read-out fell short of the control. Take `N[C@@H](CC(=O)OC[C@H]1O[C@@H](n2cc(F)c(=O)[nH]c2=O)C[C@@H]1O)C(=O)O`: the Activity in data set [1] is recorded as 26.3 g. For the same compound, the RatioGI50 with MIA PaCa-2 [2] and in the data set on ZR-75-1 [9] was 7 each time. The Cmax in data set [3] stood at 700.2 ng/g; in [4], 67.8 ng/mL. Moreover, in [5], the pIC50 was 1.99. The AUCt in data set [6] is 588.2 ng·h/mL. Also, in data set [7], the inhibition came to 50%. For the same compound, the results for the inhibition in vivo at 90 mg/kg in the data set on MDA-MB-231, in the data set on ZR-75-1 [8] and with MIA PaCa-2 [10] were 33.8%, 58.6% and 62.4%, respectively. In data set [11], the Drug uptake is 2.97 nmol/mg/min. The Ratio in data set [12] stood at 9.28.
